Laboratory results from US5541187A, “6-heterocycyclyl pyrazolo[3,4-d]pyrimidin-4-ones and compositions and method of use thereof” (Sterling Winthrop Inc., priority 1993, dated 1996).
Where a name gives a salt, the structure may show the parent alone.

Experiments:
[1] = system: cGMP-PDE I; test: cGMP-PDE I inhibitory activity (cyclic nucleotide hydrolysis, isolated PDE isozyme); assay type: biochemical, various animal species and man; settings: for IC50: values marked * are from two separate experimental runs
Procedure: Multiple isozymic forms of cyclic nucleotide phosphodiesterase (PDE) have been identified in mammalian cells. […] Elevation of intracellular cGMP in vascular smooth muscle triggers a cascade of events that leads to a reduction in muscle tone while elevations in renal tubule cell cGMP stimulates natriuresis and diuresis. Vascular smooth muscle and renal cells contain a phosphodiesterase isozyme that has a low Km (1 μM) for the hydrolysis of cGMP. This isozyme has been referred to as the cGMP-PDE or cGMP-PDE I since it elutes from an anion-exchange sepharose resin in the first peak of PDE activity at a sodium acetate concentration between 150-200 mM. Thus inhibition of the cGMP-PDE isozyme is a viable subcellular mechanism by which increases in cGMP can produce a reduction in total peripheral resistance and a stimulation of natriuresis and diuresis. The development of cGMP-PDE inhibitors represents an approach for the discovery of agents useful for treating heart failure and hypertension. For example, compounds having high inhibitory potency for the cGMP-PDE are expected to lower blood pressure and induce natriuresis and diuresis.
The cGMP-PDE and other PDE isozymes were isolated from cardiovascular tissues (heart and aorta) of various animal species and man by anion-exchange and affinity chromatography as described by Silver et al., Sec. Messeng. Phos. 13:13-25, 1991; PDE activity, in the presence and absence of test compounds was determined essentially as described by Thompson et al., Adv. Cyclic Nucleotide Res. 10:69-92. To determine the potency and selectivity of compounds as PDE inhibitors, compounds are screened for their effect on cyclic nucleotide hydrolysis at 10 μM. If ≥50% inhibition of PDE activity is observed, an IC50 value (concentration of compound causing 50% reduction in PDE activity) and corresponding 95% confidence intervals are generated. The IC50 values are calculated from concentration-response curves as described by Tallarida and Murray, Manual of Pharmacologic Calculations with Computer Programs, Procedure 8, Graded Dose-response, pp. 14-19, Springer-Verlag, N.Y., 1981.

[2] = system: Spontaneously hypertensive rats (SHR); test: Antihypertensive activity in conscious spontaneously hypertensive rats (SHR), iv; assay type: in vivo; settings: Rattus norvegicus, 5 min
Procedure: After a 2 day recovery from surgery, three baseline blood pressure measurements were made at 5 min intervals in conscious SHR. Compounds to be tested or vehicle were then administered intravenously in a dose-dependent manner (0.3-10 mg base/kg) while arterial pressure was recorded continuously on a polygraph. The mean arterial pressure response was measured 5 minutes after the administration of each dose of the test compound and the next dose given in a cumulative dose fashion. The response to each dose of the test compound was calculated as the difference from the mean of the three baseline measurements.

[3] = 5 minutes after dose, cumulative dosing, read-out: % change in mean arterial pressure

Row | SMILES | IC50 [1] | Percent Inhibition cGMP-PDE I ([1]; 1 μM) | Percent Inhibition cGMP-PDE I ([1]; 10 μM) | other results
1 | CCc1[nH]n(C2CCCC2)c2nc(-c3ccncc3OC(C)CC)nc(=O)c1-2 (centres unmarked) [Example 132b, 1-Cyclopentyl-3-ethyl-6-(3-sec-butoxy-4-pyridyl)pyrazolo[3,4-d]pyrimidin-4-one] |  |  |  | Percent Inhibition cGMP-PDE I ([1]; 0.01 μM): 90%; change in vivo at 1 mg/kg [2, 3]: -9%; change in vivo at 3 mg/kg ([2]; 3 mg/kg, 5 minutes after dose, cumulative dosing, read-out: % change in mean arterial pressure): -8%; change in vivo at 10 mg/kg [2, 3]: -12%
2 | CC(C)(C)n1nc(Cc2ccccc2)c2c(=O)[nH]c(-c3ccncc3)nc21 [Example 90] |  |  |  | change in vivo at 1 mg/kg [2, 3]: -6%
3 | CCc1[nH]n(C2CCCC2)c2nc(-c3ccncc3OC)nc(=O)c1-2 [Example 128c, 1-Cyclopentyl-3-ethyl-6-(3-methoxy-4-pyridyl)pyrazolo[3,4-d]pyrimidin-4-one] | 0.036 µM |  |  | Percent Inhibition cGMP-PDE I ([1]; 0.01 μM): 54%; Percent Inhibition cGMP-PDE I ([1]; 0.1 μM): 71%; change in vivo at 10 mg/kg [2, 3]: -48%; ED25 ([2]; read-out: ED25 (mean arterial pressure)): 0.23 mg/kg
4 | CC(=O)N1CCC(c2nc3n(C4CCCC4)[nH]c(C)c-3c(=O)n2)CC1 [Example 115, 1-Cyclopentyl-3-methyl-6-(1-acetyl-4-piperidinyl)pyrazolo[3,4-d]pyrimidin-4-one] |  | 6% | 51% | 
5 | Cc1nn(C2CC3CCC2C3)c2nc(-c3ccncc3)[nH]c(=O)c12 (centres unmarked) [Example 91] | 0.85 µM |  |  | 
6 | CC(C)(C)n1[nH]c(Nc2ccccc2)c2c(=O)nc(-c3ccncc3)nc1-2 [Example 6e, 1-tert-Butyl-3-phenylamino-6-(4-pyridyl)-pyrazolo[3,4-d]-pyrimidin-4-one] | 0.62 µM |  |  | 
7 | COc1cnccc1-c1nc2n(C3CCCC3)[nH]c(C(F)(F)F)c-2c(=O)n1 [Example 135, 1-Cyclopentyl-3-trifluoromethyl-6-(3-methoxy-4-pyridyl)pyrazolo[3,4-d]pyrimidin-4-one] |  | 88% |  | Percent Inhibition cGMP-PDE I ([1]; 0.01 μM): 36%; Percent Inhibition cGMP-PDE I ([1]; 0.1 μM): 68%
8 | CCc1nn(C2CCCC2)c2nc(-c3cc(C)nc(-n4ccnc4)c3)[nH]c(=O)c12 [Example 120, 1-Cyclopentyl-3-ethyl-6-[2-(1-imidazolyl)-6-methyl-4-pyridyl]pyrazolo[3,4-d]pyrimidin-4-one-1/4 hydrate] |  | 60% |  | Percent Inhibition cGMP-PDE I ([1]; 0.1 μM): 16%
9 | Cc1[nH]n(Cc2cccc(C(=O)O)c2)c2nc(-c3ccncc3)nc(=O)c1-2 [Example 112, 1-(3-Carboxyphenylmethyl)-3-methyl-6-(4-pyridyl)-pyrazolo[3,4-d]pyrimidin-4-one] |  | 4% | 52% | 
10 | Cc1[nH]n(Cc2cc([N+](=O)[O-])ccc2Cl)c2nc(-c3ccncc3)nc(=O)c1-2 [Example 106, 1-(2-Chloro-5-nitrophenylmethyl)-3-methyl-6-(4-pyridyl)pyrazolo[3,4-d]pyrimidin-4-one] |  | 24% | 63% | 
11 | O=c1[nH]c(-c2ccncc2)nc2c1c(Br)nn2C1CCCC1 [Example 73] | 1.8 µM |  |  | 
12 | Cc1nn(Cc2cccc(C#N)c2)c2nc(-c3ccncc3)[nH]c(=O)c12 [Example 86] |  |  | 41% | 
13 | CCc1[nH]n(C2CCCC2)c2nc(-c3ccncc3OC3CCC3)nc(=O)c1-2 [Example 130B, 1-Cyclopentyl-3-ethyl-6-(3-cyclobutyloxy-4-pyridyl)pyrazolo[3,4-d]pyrimidin-4-one] |  |  |  | Percent Inhibition cGMP-PDE I ([1]; 0.01 μM): 91%
14 | COc1cnccc1-c1nc2n(C(C)(C)C)[nH]c(Cc3ccncc3)c-2c(=O)n1 [Example 134b, 1-tert-Butyl-3-(4-pyridylmethyl)-6-(3-methoxy-4-pyridyl)pyrazolo[3,4-d]pyrimidin-4-one] |  |  |  | Percent Inhibition cGMP-PDE I ([1]; 0.01 μM): 35%; Percent Inhibition cGMP-PDE I ([1]; 0.1 μM): 55%
15 | Cc1nn(C2CCCC2)c2nc(C3CCNCC3)[nH]c(=O)c12 [Example 109, 1-Cyclopentyl-3-methyl-6-(4-piperidinyl)-pyrazolo[3,4-d]-pyrimidin-4-one monohydrochloride. 1/2 hydrate] |  | 7% | 13% | 
16 | CCc1nn(C2CCCC2)c2nc(C3CCN(C)c4ccccc43)[nH]c(=O)c12 (centres unmarked) [Example 10b, 1-cyclopentyl-3-ethyl-6-(1,2,3,4-tetrahydro-4-N-methyl-quinolinyl)-pyrazolo-[3,4-d]pyrimidin-4-one] |  | 62% |  | Percent Inhibition cGMP-PDE I ([1]; 0.1 μM): 24%
17 | CCc1[nH]n(C2CCCC2)c2nc(-c3ccnc(N4CCOCC4)c3)nc(=O)c1-2 [Example 129c, 1-Cyclopentyl-3-ethyl-6-(2-(4-morpholinyl)-4-pyridyl)pyrazolo[3,4-d]pyrimidin-4-one] |  | 64% |  | Percent Inhibition cGMP-PDE I ([1]; 0.1 μM): 35%

Row | SMILES | IC50 [1] | Percent Inhibition cGMP-PDE I ([1]; 1 μM) | Percent Inhibition cGMP-PDE I ([1]; 10 μM) | other results
18 | Cc1[nH]n(Cc2ccc([N+](=O)[O-])cc2)c2nc(-c3ccncc3)nc(=O)c1-2 [Example 105, 1-(4-Nitrophenylmethyl)-3-methyl-6-(4-pyridyl)pyrazolo[3,4-d]pyrimidin-4-one] | 6.7 µM |  |  | 
19 | Cc1[nH]n(Cc2cccc(C(N)=O)c2)c2nc(-c3ccncc3)nc(=O)c1-2 [Example 113, 1-(3-Carbamoylphenylmethyl)-3-methyl-6-(4-pyridyl) pyrazolo[3,4-d]pyrimidin-4-one] |  | 0% | 48% | 
20 | CN(C)c1[nH]n(C2CCCC2)c2nc(-c3ccncc3)nc(=O)c1-2 [Example 20c, 1-Cyclopentyl-3-dimethylamino-6-(4-pyridyl) pyrazolo[3,4-d]pyrimidin-4-one] |  | 36% | 70% | 
21 | Cc1[nH]n(Cc2ccc(C(N)=O)cc2)c2nc(-c3ccncc3)nc(=O)c1-2 [Example 110, 1-(4-Carbamoylphenylmethyl)-3-methyl-6-(4-pyridyl)pyrazolo[3,4-d]pyrimidin-4-one] |  | 23% | 74% | 
22 | O=c1[nH]c(-c2ccncc2)nc2c1c([N+](=O)[O-])nn2C1CCCC1 [Example 74] |  | 0% | 32% | 
23 | CCc1[nH]n(C2CCCC2)c2nc(-c3ccnc(C)c3)nc(=O)c1-2 [Example 118, 1-Cyclopentyl-3-ethyl-6-(2-methyl-4-pyridyl)pyrazolo[3,4-d]pyrimidin-4-one] | 0.66 µM | 61% |  | Percent Inhibition cGMP-PDE I ([1]; 0.1 μM): 22%
24 | Cc1[nH]n(C2CCCC2)c2nc(C3CCN(C(=O)C(F)(F)F)CC3)nc(=O)c1-2 [Example 116, 1-Cyclopentyl-3-methyl-6-(1-trifluoroacetyl-4-piperidinyl)pyrazolo[3,4-d]pyrimidin-4-one] |  | 34% |  | 
25 | CCc1[nH]n(C2CCCC2)c2nc(C3CCNc4ccccc43)nc(=O)c1-2 (centres unmarked) [Example 9, 1-Cyclopentyl-3-ethyl-6-(1,2,3,4-tetrahydro-4-quinolinyl)-pyrazolo[3,4-d]pyrimidin-4-one] | 0.28 µM |  |  | 
26 | Cc1nn(C2CCCC2O)c2nc(-c3ccncc3)[nH]c(=O)c12 (centres unmarked) [Example 17e] | 2.3 µM |  |  | 
27 | CC(C)(C)n1ncc2c(=O)[nH]c(-c3ccncc3)nc21 [Example 92] | 0.68 µM |  |  | 
28 | Cc1nn(CCCCCCC(=O)O)c2nc(-c3ccncc3)[nH]c(=O)c12 [Example 79] | 4.7 µM |  |  | 
29 | Cc1nn(Cc2cccc(Cl)c2)c2nc(-c3ccncc3)[nH]c(=O)c12 [Example 81] | 0.2 µM |  |  | 
30 | N#Cc1[nH]n(C2CCCC2)c2nc(-c3ccncc3)nc(=O)c1-2 [Example 100, 1-Cyclopentyl-3-cyano-6-(4-pyridyl)-pyrazolo-[3,4-d]pyrimidin-4-one] |  | 9% | 35% | 
31 | CCc1[nH]n(C2CCCC2)c2nc(-n3ccnc3)nc(=O)c1-2 [Example 122d, 1-Cyclopentyl-3-ethyl-6-(1-imidazolyl)pyrazolo[3,4-d]pyrimidin-4-one] |  | 16% | 46% | 
32 | Cc1nn(Cc2ccccc2Cl)c2nc(-c3ccncc3)[nH]c(=O)c12 [Example 82] | 0.55 µM |  |  | 
33 | CCc1[nH]n(C2CCCC2)c2nc(-c3ccnc(Cl)c3)nc(=O)c1-2 [Example 125b, 1-Cyclopentyl-3-ethyl-6-(2-chloro-4-pyridyl)pyrazolo[3,4-d]pyrimidin-4-one] | 0.58 µM | 59% |  | Percent Inhibition cGMP-PDE I ([1]; 0.1 μM): 27%
34 | CC(C)(C)c1nn(C2CCCC2)c2nc(-c3ccncc3)[nH]c(=O)c12 [Example 95] |  | 9% | 32% | 
